Here are results for 1 substance from patent US8642516B2, “Chemically-defined arrays for screening cell-substrate interactions” (Wisconsin Alumni Research Foundation, priority 2012, dated 2014).

Common to all, as to type: cell-based, human
The subject of experiment [1] is HUVEC. Briefly: HUVEC proliferation (Click-it EdU) in response to soluble morphogens on SAM arrays. As to conditions: increased immobilized GRGDSP density.
Experimental: Specifically, SAM array spots presenting mixed ligands were prepared as described above. SAM arrays presenting varied ligand densities of covalently immobilized VEGF receptor-binding peptide ([sequence], here referred to as “VR-BP”; SEQ ID NO:17) and varied ligand densities of the fibronectin-derived cell adhesion peptide (GRGDSP, SEQ ID NO:18) were used to probe for changes in HUVEC attachment, proliferation and tubulogenesis. Control over individual ligand density was achieved by mixing scrambled VR-BP and mutant GRGESP (SEQ ID NO:19) with functional VR-BP or GRGDSP (SEQ ID NO:18) peptides, respectively. Therefore, in a typical SAM array, SAMs were locally formed within spots using an alkanethiolate mixture of 94% HS—C11-EG3-OH and 6% HS—C11-EG6-COOH to create substrates with a total of 6% carboxylate groups for peptide conjugation. Next, to create a spot presenting 5% GRGDSP (SEQ ID NO:18) and 1% VR-BP, a 300 μM peptide solution with 250 μM GRGDSP (SEQ ID NO:18) and 50 μM VR-BP was used during peptide conjugation. Likewise, to create a spot presenting 2.5% GRGDSP (SEQ ID NO:18) and 0.1% VR-BP, a 300 μM peptide solution with 125 μM GRGDSP (SEQ ID NO:18), 125 μM GRGESP (SEQ ID NO:19), 5 μM VR-BP and 45 μM scrambled peptide was used during peptide conjugation. In this manner, the amount of active ligand could be varied between spots while holding the total ligand content constant.
Passage 2 HUVECs were expanded at low cell density (less than 70% confluence) on tissue culture polystyrene to no more than 14 population doublings. During HUVEC expansion, cells were cultured in medium 199 (m199, Mediatech, Manassas, Va.) containing 1% penicillin/streptomycin (Hyclone, Logan, Utah) and supplemented with Clonetics EGM-2 BullitKit (Lonza Walkersville, Inc., Walkersville, Md.) containing Hydrocortisone, hFGF-B, VEGF, R3-IGF-1, Ascorbic Acid, Heparin, FBS, hEGF, GA-1000 growth supplements. […]
Experiment [2] relates to hMSC. The experiment can be described thus: hMSC spreading (projected cell area) on SAM array spots presenting GRGDSP. As to conditions: hMSCs. Here is the method:
(§1) For cell assays on SAM arrays, HUVECs or hMSCs were removed from plastic culture plates using a 0.05% trypsin solution, resuspended in media, and seeded onto SAM arrays in sterile polystyrene Petri dishes. After allowing cells to attach for ˜1 hour in a humidified incubator at 37° C. and 5% CO2, arrays were dipped in warm media to remove loosely attached cells and then transferred to a rectangular multidish (Thermo Scientific/Nunc, Rochester, N.Y.) with warm media and imaged ˜4 hours later serving as “0 hr.” For the initial time point and subsequent time-lapse imaging, arrays were placed on an incubated stage and each array spot was imaged every 15 minutes for 72 hours. […]
(§2) Relative cell attachment at 0 hrs was quantified by counting the number of attached cells per spot and normalizing cell numbers to maximal attachment conditions. Normalized cell number was calculated by dividing the number of cells per spot at 72 hours (C72) to the cell number observed on the same spot at 0 hrs (C0). Relative proliferation was determined by dividing normalized cell numbers at 72 hours by the maximum average normalized cell number observed across GRGDSP density conditions. Similarly, relative spreading was determined by dividing projected cell areas to the maximum average projected cell area observed across GRGDSP density conditions. […]

Experiment [3] relates to hMSC. Briefly: hMSC proliferation (normalized cell number C72/C0) on SAM array spots presenting GRGDSP. The following applies: hMSCs, 72 hours. Here is the method: as §1, §2
The subject of experiment [4] is HUVEC. Briefly: HUVEC spreading (projected cell area) on SAM array spots presenting GRGDSP. The protocol: For cell assays on SAM arrays, HUVECs or hMSCs were removed from plastic culture plates using a 0.05% trypsin solution, resuspended in media, and seeded onto SAM arrays in sterile polystyrene Petri dishes. After allowing cells to attach for ˜1 hour in a humidified incubator at 37° C. and 5% CO2, arrays were dipped in warm media to remove loosely attached cells and then transferred to a rectangular multidish (Thermo Scientific/Nunc, Rochester, N.Y.) with warm media and imaged ˜4 hours later serving as “0 hr.” For the initial time point and subsequent time-lapse imaging, arrays were placed on an incubated stage and each array spot was imaged every 15 minutes for 72 hours. Furthermore, it is important to point out that all cell experiments for comparison between HUVECs and hMSCs were run simultaneously.
For immunocytochemistry, at 24 and 72 hour time points during the time-lapse experiment, staining for the actin cytoskeleton and focal adhesion markers was performed as directed by the manufacturer (Catalog No. FAK100, Millipore, Billerica, Mass.). […]
Relative cell attachment at 0 hrs was quantified by counting the number of attached cells per spot and normalizing cell numbers to maximal attachment conditions. Normalized cell number was calculated by dividing the number of cells per spot at 72 hours (C72) to the cell number observed on the same spot at 0 hrs (C0). Relative proliferation was determined by dividing normalized cell numbers at 72 hours by the maximum average normalized cell number observed across GRGDSP density conditions. Similarly, relative spreading was determined by dividing projected cell areas to the maximum average projected cell area observed across GRGDSP density conditions. […] For each spot, average cell projected area was calculated by dividing the thresholded actin staining (red channel) by the total number of nuclei in the same spot. […]
Specifically, SAM arrays were prepared as described above. […] Cell spreading was determined by culturing HUVECs and hMSCs for 24 hours and 72 hours and analyzed by cell staining and quantified by measuring projected cell area. […]

On to GRGDSP, for which the “HUVEC proliferation dependence on ligand density” value in the experiment on HUVEC [1] was “increased proliferation”. Besides, the “maximal projected cell area” value with hMSC [2] (24 hrs, SAM spots with 1.6% and 5% GRGDSP) was “greater than 4000 μm^2”; in the experiment with HUVEC [4] (HUVECs, 24 hrs, SAM spots with 1.6% and 5% GRGDSP), “greater than 4000 μm^2”. For the same substance, the “change in projected cell area from 24 to 72 hrs” value in the experiment on hMSC [2] (across several GRGDSP densities) is “slight decreases”; with HUVEC [4] (HUVECs, all GRGDSP densities above 0.06%), “increasing their projected cell area”. Also, the “maximum normalized cell number (C72/C0)” value in the experiment with hMSC [3] (across GRGDSP densities) is 6.1. Moreover, the proliferation result with hMSC [3] (below 0.06% GRGDSP) is “no proliferation”. The “maximal HUVEC spreading (projected cell area)” value in the experiment with HUVEC [4] (72 hours, SAM spots with 1.67% and 5% GRGDSP) was 6000 μm^2.
